For data set [1] the following is noted: cited from earlier work.
A short description of data set [2]: Methylene blue (MB) dye oxidation / color removal test. The conditions noted are these: hydrogen peroxide alone, after several days.

In general, pKa refers to the negative logarithm of the acid dissociation constant.

Turning to `[O]O` [superoxide], in data set [1], the pKa is reported as 4.8. Consider `OO` [hydrogen peroxide], for which, in data set [2], the “effect on methylene blue” value is “no visible effect”. Also, the pKa in data set [1] is listed as 11.6.

For `CC(=O)OO` [peroxyacetic acid], the pKa in data set [1] is reported as 8.3.

The record behind these values is patent US10875799B2, “System and method for generation of point of use reactive oxygen species” (Clean Chemistry, Inc., priority 2012, dated 2020).
